Patent publication EP1889615A2, “Formulations for oral administration with a health promoting effect on the osteoarticular and muscleskeleton apparatus” (ROTTAPHARM S.P.A., priority 2006, dated 2008)
pEC50, pIC50: −log10 of the molar value. Converted amounts (≈) assume the structure as drawn.

What was measured:
[1] = system: zymosan-induced rat paw oedema; test: Rat: anti-inflammatory activity on zymosan-induced paw oedema; format: in vivo; details: for % Diff. vs. control / Diff. vs. control: oedema; for % Diff. vs. control / Diff. vs. control / Oedema: oral; for Oedema: area under curve 0-24 h
Protocol: The anti-inflammatory activities of the test products have been assessed according to Di Rosa et al. [1971] on rat paw oedema induced by a subplantar injection of 4 mg di zymosan in 0.1 ml of isotonic saline. Paw volume has been measured pletismographically at 0, 1, 2, 4, 6 and 24 hours following the injection of zymosan, and expressed in ml of difference, with respect to the baseline volume. The test products, suspended in 5 ml/kg of 5% methylcellulose, have been administered with a gastric probe 30 minutes prior to the injection of zymosan. Celecoxib, a known COX-2 inhibitor, widely used clinically, and administered orally at a dose of 10 mg/kg, has been used as a reference standard. In order to express the treatment effects numerically, the areas under the curves of paw volume increase from 0 to 24 hours have been measured, thus giving the measurement of paw oedema in mlx24 hours.

[2] = system: tibial joint cartilage explants; test: Rabbit cartilage explants: protection against IL-1β-induced cartilage degradation (GAG release); details: for %Diff. vs baseline: GAG release, protection positive
Protocol: The explants (2 x 2 mm) have been transferred to plates with wells and equilibrated for 48 hours at 37°C with high glucose DMEM plus 10% FCS and 50 µg/ml gentamycin. Explants have then been stimulated for 48 hours with 1 ng/ml IL-1β in aphenolic DMEM, 1 g/l glucose, 50 µg/ml gentamycin and 1% BSA. IL-1β elicits strong activation of the enzymes which depolymerise the proteoglycan aggregates of the cartilage matrix, resulting in its degradation, with the release of the breakdown products, mainly represented by the various glycosaminoglycans (GAG) making up the proteoglycan aggregates, into the culture liquid. […] In order to assess the effects of the test products on IL-1β-induced cartilage degradation, they have been added to the cartilage explants 20 minutes prior to stimulation with IL-1β. Cartilage degradation has been assessed by expressing the GAG released into the culture liquid as a percentage of the total GAG measured following complete digestion of the cartilage explants using papain.

IL-1 = test: Human blood: LPS stimulated production (expression) of IL-1; format: cell-based
Protocol: (§1) 200 µl samples have been stimulated with 1 µg/ml of LPS for 24 hours at 37°C [Hartel et al. 2004], in the presence of the test products. The cytokines released into the plasma have been analysed using a multiple system for cytokines (Bio-Plex, Bio-Rad Laboratories, Milan, Italy) allowing the simultaneous determination of IL-1, TNFα and IL-10.

[3] = system: zymosan-induced rat paw hyperalgesia; test: Rat: analgesic activity (Randall and Selitto) on zymosan-induced paw hyperalgesia; format: in vivo; details: for % Diff. vs. control: analgesia; for % Diff. vs. control / Diff. vs. control / Analgesia: oral; for Diff. vs. control: difference of the Analgesia Δgx24h values; for Analgesia: area under analgesimetric curve 0-24 h
Protocol: The analgesic activities of the test products have been evaluated using the technique of Randall and Selitto [1957] on hyperalgesia induced in rat paw by a subplantar injection of 4 mg di zymosan in 0.1 ml of isotonic saline. The mechanical nociceptive threshold has been determined using an analgesimeter (Ugo Basile, Varese, Italy) at 0, 1, 2, 4, 6 and 24 hours following the injection of zymosan. The analgesimeter measures the weight (in grams) applied to the paw which causes the reflex retraction of the paw itself. The nociceptive threshold has been expressed as the difference (in grams) in nociceptive threshold at time 0. The test products have been administered orally 30 minutes prior to the injection of zymosan. Celecoxib, a known COX-2 inhibitor, widely used clinically as an analgesic-anti-inflammatory, and administered orally at a dose of 10 mg/kg, has been used as a reference standard. In order to express the treatment effects numerically, the areas under the curves of the analgesimetric weight increase on the inflamed paw have been measured from 0 to 24 hours, thus giving the measurement in g x 24 hours of the area under the analgesimetric curve.

PGE2 [4] = test: Human blood: production of PGE2 stimulated by 100 µg/ml LPS, marker of monocyte COX-2 activity; format: cell-based
Protocol: Human blood has been collected from health volunteers and made uncoagulable with 0.38% Na citrate. The test products have been added to 200 µl samples and then said samples stimulated with 100 µg/ml of LPS for 24 hours at 37°C. The PGE2 in the plasma, a marker of monocyte COX-2 activity [Panara et al. 1999], has been determined using a specific RIA method.

TNFα = test: Human blood: LPS stimulated production (expression) of TNFα; format: cell-based
Protocol: as §1

IL-10 = test: Human blood: LPS stimulated production (expression) of IL-10; format: cell-based
Protocol: as §1, with “Venous blood has been collected from healthy volunteers and treated with 0.38% Na citrate in order to prevent coagulation. 200 µl” for “200 µl”

PGE2 [5] = test: Rabbit chondrocytes: IL-1β-stimulated production of PGE2 (a COX-2 marker); format: cell-based, New Zealand white rabbits; details: for %Diff. vs control: PGE2, control = IL-1β
Protocol: Joint cartilage chondrocytes, obtained from New Zealand white rabbits, have been cultured using the technique described by Berenbaum [1994]. […] The test products have been added 20 minutes prior to stimulation. On completion of stimulation, the supernatant liquid has been collected and stored at -80°C until analysis. PGE2 in the culture medium has been measured using a radio-immunological method. The production of PGE2 in this model is a marker of the activity of the cyclooxygenases induced (COX-2) in cartilage from the proinflammatory stimulus represented by IL-1β.

TXB2 = test: Human blood: coagulation-induced thromboxane (TXB2) production, marker of platelet COX-1 activity; format: cell-based; details: for %Diff. vs control: TXB2
Protocol: The test products have been added to samples of human blood, collected from healthy volunteers, and then said samples allowed to coagulate by leaving to stand for 1 hour at 37°C. The thromboxane (TXB2) in the serum, a marker of platelet COX-1 activity (Panara et al. 1999], has been determined using a specific RIA method.

[6] = system: methicillin and penicillin-resistant strains of Staphylococcus aureus; details: cited from earlier work
[7] = system: Mycobacterium tuberculosis; details: cited from earlier work
[8] = oral doses of 40, 133 and 400 mg/kg
[9] = 1 µM (Man, ASS as mangostin; ASS 1 = Man 1 + CGS 10)
[10] = 30 µM (Man, ASS as mangostin; ASS 30 = Man 30 + CGS 300)
[11] = 10 µM (Man, ASS as mangostin; ASS 10 = Man 10 + CGS 100)
[12] = 10 mg/kg (Man, ASS as mangostin; ASS 10 = Man 10 + CGS 133)

With `N[C@H]1C(O)O[C@H](CO)[C@@H](O)[C@@H]1O.N[C@H]1C(O)O[C@H](CO)[C@@H](O)[C@@H]1O.O=S(=O)(O)O.[Cl-].[Cl-].[Na+].[Na+]` (stereo partly shown) [CGS, Crystalline Glucosamine Sulphate] the “% Diff. vs. control” value ([1]; 40 mg/kg) was -1%, the Diff. vs. control ([1]; 40 mg/kg) was -0.1 mlx24 hours and the “% Diff. vs. control” value ([1]; 133 mg/kg) was -2%. The Diff. vs. control ([1]; 133 mg/kg) was -0.3 mlx24 hours, the “% Diff. vs. control” value ([1]; 400 mg/kg) was -4% and the Diff. vs. control ([1]; 400 mg/kg) was -0.6 mlx24 hours. For the same compound, the anti-inflammatory activity [1, 8] was “no significant anti-inflammatory activity”, the Oedema ([1]; 40 mg/kg) was 15.6 Δmlx24h and the Oedema ([1]; 133 mg/kg) was 15.4 Δmlx24h. The Oedema ([1]; 400 mg/kg) was 15.2 Δmlx24h, the “protection against IL-1β-induced cartilage degradation” value (“protection” below) ([2]; 1 µM) was 41% and the “%GAG released” value [2, 9] was 41%. For the same compound, the “%GAG released” value ([2]; 3 µM) was 25%, the “%GAG released” value ([2]; 10 µM) was 16% and the “protection” value ([2]; 3 mM CGS) was 64%. For the same compound, the “protection” value ([2]; 10 mM CGS) was 77%, the “%Diff. vs baseline” value [2, 9] was 40.6% and the “%Diff. vs baseline” value ([2]; 3 µM) was 63.8%. The “%Diff. vs baseline” value ([2]; 10 µM) was 76.8%, the pEC50 ([2]; read-out: PC50, 50% protective concentration, ASS with reference to CGS) was 5.64 and the IL-1 (IL-1; [10]) was 4.65 ng/mL. For the same compound, the IL-1 (IL-1; 100 µM) was 4.72 ng/mL, the IL-1 (IL-1; 300 µM) was 4.69 ng/mL and the “%Diff. vs control” value (IL-1; IL-1, 30 µM (Man, ASS as mangostin; ASS 30 = Man 30 + CGS 300)) was 2.1%. For the same compound, the “%Diff. vs control” value (IL-1; IL-1, 100 µM) was 3.6%, the “%Diff. vs control” value (IL-1; IL-1, 300 µM) was 3.1% and the inhibitory activity (IL-1; IL-1, up to a concentration of 300 µM) was “no appreciable inhibitory activity”. For the same compound, the “% Diff. vs. control” value ([3]; 40 mg/kg) was 1%, the “% Diff. vs. control” value ([3]; 133 mg/kg) was -6% and the “% Diff. vs. control” value ([3]; 400 mg/kg) was -4%. It also gave a Diff. vs. control ([3]; 40 mg/kg) of 7, a Diff. vs. control ([3]; 133 mg/kg) of -59 and a Diff. vs. control ([3]; 400 mg/kg) of -46. For the same compound, the analgesic activity [3, 8] was “no significant analgesic activity”, the Analgesia ([3]; 40 mg/kg) was 1079 Δgx24h and the Analgesia ([3]; 133 mg/kg) was 1012 Δgx24h. The Analgesia ([3]; 400 mg/kg) was 1026 Δgx24h, the PGE2 (PGE2 [4]; [11]) was 22.7 ng/mL and the PGE2 (PGE2 [4]; 30 µM (ASS as mangostin; ASS 30 = Man 30 + CGS 300)) was 24.3 ng/mL. For the same compound, the PGE2 (PGE2 [4]; 100 µM) was 23.5 ng/mL, the “%Diff. vs control” value (PGE2 [4]; PGE2, 10 µM (Man, ASS as mangostin; ASS 10 = Man 10 + CGS 100)) was -7.3% and the “%Diff. vs control” value (PGE2 [4]; PGE2, 30 µM (ASS as mangostin; ASS 30 = Man 30 + CGS 300)) was -0.8%. The “%Diff. vs control” value (PGE2 [4]; PGE2, 100 µM) was -4.1%, the “stimulatory or inhibitory activity” value (PGE2 [4]; PGE2, concentrations of 10, 30 or 100 µM) was “no significant stimulatory or inhibitory activity” and the TNFα (TNFα; [10]) was 14.70 ng/mL. For the same compound, the TNFα (TNFα; 100 µM) was 13.80 ng/mL, the TNFα (TNFα; 300 µM) was 12.70 ng/mL and the “%Diff. vs control” value (TNFα; TNFα, 30 µM (Man, ASS as mangostin; ASS 30 = Man 30 + CGS 300)) was -7.9%. For the same compound, the “%Diff. vs control” value (TNFα; TNFα, 100 µM) was -13.5%, the “%Diff. vs control” value (TNFα; TNFα, 300 µM) was -20.4% and the pIC50 (TNFα; TNFα, Man/Eman and ASS as mangostin concentration) was under 3.52. The inhibitory activity (TNFα; TNFα, even at concentrations of 300 µM) was “weakly inhibitory”, the IL-10 (IL-10; [10]) was 0.25 ng/mL and the IL-10 (IL-10; 100 µM) was 0.26 ng/mL. For the same compound, the IL-10 (IL-10; 300 µM) was 0.27 ng/mL, the “%Diff. vs control” value (IL-10; IL-10 (increase positive), 30 µM (Man, ASS as mangostin; ASS 30 = Man 30 + CGS 300)) was -3.5% and the “%Diff. vs control” value (IL-10; IL-10, 100 µM) was 1.6%. The “%Diff. vs control” value (IL-10; IL-10, 300 µM) was 6.3%, the “stimulatory or inhibitory activity” value (IL-10; IL-10, concentrations tested 30, 100 and 300 µM) was “no significant stimulatory or inhibitory activity” and the PGE2 (PGE2 [5]; [9]) was 200 ng/mL. For the same compound, the PGE2 (PGE2 [5]; 3 µM (Man as mangostin)) was 180 ng/mL, the PGE2 (PGE2 [5]; 10 µM) was 210 ng/mL and the “%Diff. vs control” value (PGE2 [5]; [9]) was 6.4%. For the same compound, the “%Diff. vs control” value (PGE2 [5]; 3 µM (Man as mangostin)) was -4.3%, the “%Diff. vs control” value (PGE2 [5]; 10 µM) was -11.7% and the “inhibitory or stimulatory activity” value (PGE2 [5]; PGE2, concentrations of 1, 3 or 10 µM) was “no significant inhibitory or stimulatory activity”. The TXB2 (TXB2; [11]) was 124 ng/mL, the TXB2 (TXB2; 30 µM) was 118 ng/mL and the TXB2 (TXB2; 100 µM) was 125 ng/mL. For the same compound, the “effect on the release of TXB2” value (TXB2; Man 1, 3, 10, CGS 10, 30, 100 µM, Ass 1, 3, 10) was “no significant stimulatory or inhibitory activity”, the “%Diff. vs control” value (TXB2; [11]) was 3.3% and the “%Diff. vs control” value (TXB2; 30 µM) was -1.7%. The “%Diff. vs control” value (TXB2; 100 µM) was 4.2%.

In the case of `C[C@@H]1C[C@@H]([C@H](O)CC2CC(=O)NC(=O)C2)C(=O)[C@@H](C)C1` [CHX, Cycloheximide], the “%GAG released” value ([2]; CHX 2.5 µg/ml) was 12% and the “%Diff. vs baseline” value ([2]; CHX 2.5 µg/ml) was 82.6%.

For `Cc1ccc(-c2cc(C(F)(F)F)nn2-c2ccc(S(N)(=O)=O)cc2)cc1` [CLX, Celecoxib], the “% Diff. vs. control” value [1, 12] was -30%, the Diff. vs. control [1, 12] was -4.7 mlx24 hours and the Oedema [1, 12] was 11.8 Δmlx24h. For the same compound, the “% Diff. vs. control” value [3, 12] was -46%, the Diff. vs. control [3, 12] was -497 and the Analgesia [3, 12] was 574 Δgx24h.

In the case of `COc1c(O)cc2oc3cc(O)c(CC=C(C)C)c(O)c3c(=O)c2c1CC=C(C)C` [α-mangostin], the MIC [6] is given as 1.6 µg/mL (≈ 3.9 µM) and the MIC [7] is given as 6.25 µg/mL (≈ 15.2 µM).

For `COc1cc2oc3cc(O)c(OC)c(CC=C(C)C)c3c(=O)c2c(O)c1CC=C(C)C` [β-mangostin], the MIC [6] is given as 1.6 µg/mL (≈ 3.77 µM) and the MIC [7] is given as 6.25 µg/mL (≈ 14.7 µM).
